Laboratory results published in US9301951B2 (Ardelyx, Inc., priority 2010, dated 2016).
Marks after values point to notes of the source that are not given here. Blank lines part the entries; values can stand above or below the compound they belong to.

How the values were obtained:
rat NaP2b (SLC34A2) = target: T1, rat NaP2b (SLC34A2) (Rattus norvegicus, UniProt Q9JJ09); assay: Inhibition of NaP2b-mediated Pi (33P) uptake in transfected HEK293 cells, rat NaP2b; type: cell-based; conditions: HEK293 cells transfected with rat NaP2b, 100 uM phosphate, 0.1 nM to 30 uM, read-out: pIC50 range for rat Nap2b (converted)
T1 construct: host or cells: HEK293
T1 sequence (Q9JJ09 1-695): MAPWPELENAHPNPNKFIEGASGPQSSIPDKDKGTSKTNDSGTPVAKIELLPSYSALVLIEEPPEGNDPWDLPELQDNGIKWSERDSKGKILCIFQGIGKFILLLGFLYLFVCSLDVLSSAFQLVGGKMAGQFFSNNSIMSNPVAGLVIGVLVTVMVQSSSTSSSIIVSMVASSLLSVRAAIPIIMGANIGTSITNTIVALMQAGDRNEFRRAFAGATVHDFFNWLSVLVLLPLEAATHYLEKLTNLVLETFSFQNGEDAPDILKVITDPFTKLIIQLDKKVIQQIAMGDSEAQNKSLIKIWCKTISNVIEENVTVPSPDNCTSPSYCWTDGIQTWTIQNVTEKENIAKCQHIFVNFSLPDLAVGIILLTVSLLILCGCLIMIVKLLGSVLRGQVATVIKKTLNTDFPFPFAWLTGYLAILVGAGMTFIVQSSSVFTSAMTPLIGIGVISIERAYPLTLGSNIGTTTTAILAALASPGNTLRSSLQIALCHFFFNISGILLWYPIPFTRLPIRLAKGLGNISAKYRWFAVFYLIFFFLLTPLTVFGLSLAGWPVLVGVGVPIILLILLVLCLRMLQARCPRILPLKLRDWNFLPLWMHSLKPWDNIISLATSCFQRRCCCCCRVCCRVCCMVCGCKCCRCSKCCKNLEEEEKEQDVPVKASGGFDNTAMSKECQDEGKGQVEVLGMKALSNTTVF
Method in brief: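 HEK293 cells transiently transfected with rat NaP2b; 33P-phosphate uptake measured in sodium or choline buffer (100 uM KH2PO4, PiT-silencing agent, pH 7.4) with compound at twelve concentrations, 0.1 nM–30 uM, in duplicate. Lysed cells counted by scintillation; pIC50 derived from concentration-response.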

Sprague-Dawley rats = assay: In vivo bolus phosphorus challenge (serum phosphate elevation); conditions: rat; oral; drug dose 30; phosphate bolus 15 min after compound; serum 30 min post bolus
Procedure: By pretreating animals with a low phosphorus diet followed by the subsequent dosing of a phosphorus bolus, serum phosphorus levels were monitored after 30 minutes as a surrogate for intestinal phosphorus absorption. […] The in vivo bolus phosphorus challenge model used here mimics this model in rats.
Male, 7-week-old Sprague-Dawley rats (Charles-River laboratories international, Hollister, Calif.) were allowed to acclimatize for a minimum of 3 days before switching to a synthetic low-phosphorus diet (TD.85010, Harlan Teklad, Madison, Wis.) which contains 0.1% phosphorus and 0.6% calcium. At day 5, testing compounds or vehicle alone (as indicated) were orally administered at the indicated dose in a volume of 5 ml/kg, followed by a bolus gavage of monobasic sodium phosphate (1 mmol in 1 ml) 15 min after compound dosing. Serum was collected via retroorbital bleeding 30 min post phosphate bolus and phosphate levels were determined utilizing an ACE ALERA blood chemistry analyzer (Alfa Wassermann Diagnostic Technologies, West Caldwell, N.J.).
The extent of inhibition by test compounds on the elevation of serum phosphate levels in response to the bolus of phosphorus is shown in Table 12 (data are expressed as % Inhibition, with 6-10 animals per data point). The differences between groups were evaluated by one-way analysis of variance with Dunnett's post hoc tests.

[1] = test system: 5/6 nephrectomy (5/6Nx) rat model of CKD; assay: In vivo evaluation in CKD rats (5/6 nephrectomy, 0.9% P diet, calcitriol); conditions: drug in chow
Procedure: To assess the ability of selected example compounds to impact the progression of chronic kidney disease (CKD), 5/6 nephrectomy (5/6Nx) rat model of CKD was used. […] 5/6 Nx rats were obtained from Charles River Labs (CRL, Hollister, Calif.). Upon arrival, the surgeries and extent of kidney damage in the animals were assessed by measuring serum creatinine, P, Ca, and BUN. Based on this analysis, rats with inconsistent kidney function were removed from the study and the remainder of the cohort was divided in to evenly stratified test groups. The remaining animals were then placed on the same synthetic diet used in the drug-in-chow studies (Example 350), except the P levels were adjusted to 0.9% P. Drugs are blended into this chow to achieve the required dosing rate. At this time, rats were also started on an activated Vitamin D regimen in which they were injected intraperitoneally with calcitriol at 80 ng/kg three times a week. Once a week, serum was collected via retro orbital bleeding for analysis of serum P and creatinine utilizing an ACE ALERA blood chemistry analyzer. […] Unless otherwise indicated, the data shown is from the serum collected at 2 weeks after initiation of the treatment regimen. In addition, for study #3, during the third week of the study, the animals were placed in metabolic cages for two days, and urine collected for the final 24 hours.

human NaP2b (SLC34A2) = target: T2, human NaP2b (SLC34A2) (Homo sapiens, UniProt O95436); assay: Inhibition of NaP2b-mediated Pi (33P) uptake in transfected HEK293 cells, human NaP2b; type: cell-based; conditions: HEK293 cells transfected with human NaP2b, 100 uM phosphate, 0.1 nM to 30 uM, read-out: pIC50 range for human NaP2b (converted)
T2 construct: host or cells: HEK293
T2 sequence (O95436 1-690): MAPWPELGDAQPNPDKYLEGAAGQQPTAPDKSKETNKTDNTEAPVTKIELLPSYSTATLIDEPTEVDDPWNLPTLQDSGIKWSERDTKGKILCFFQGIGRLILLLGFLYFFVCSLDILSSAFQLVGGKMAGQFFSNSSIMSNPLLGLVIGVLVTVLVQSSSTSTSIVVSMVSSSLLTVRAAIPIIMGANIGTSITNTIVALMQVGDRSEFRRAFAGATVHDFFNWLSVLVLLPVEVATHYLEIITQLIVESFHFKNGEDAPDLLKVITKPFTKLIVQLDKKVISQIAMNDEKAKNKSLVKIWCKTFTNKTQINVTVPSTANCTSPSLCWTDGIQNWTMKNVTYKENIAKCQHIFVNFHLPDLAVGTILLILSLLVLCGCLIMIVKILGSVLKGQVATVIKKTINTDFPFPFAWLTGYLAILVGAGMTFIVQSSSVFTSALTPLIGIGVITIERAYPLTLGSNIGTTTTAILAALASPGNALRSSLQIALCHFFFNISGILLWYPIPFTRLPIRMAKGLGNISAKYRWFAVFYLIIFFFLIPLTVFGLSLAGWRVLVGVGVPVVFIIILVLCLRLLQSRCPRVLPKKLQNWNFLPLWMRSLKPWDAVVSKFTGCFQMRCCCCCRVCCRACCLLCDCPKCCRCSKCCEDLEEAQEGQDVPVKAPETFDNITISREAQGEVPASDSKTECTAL
Procedure: HEK293 cells were obtained from the American Type Culture collection and propagated per their instructions. Expression clones for rat and human NaP2b (SLC34A2) were obtained from Open Biosystems (Catalog numbers MRN1768-9510282, and MHS1010-99823026, respectively). The sequence of the human protein was mutated to insert a threonine after residue 37, and to introduce a N39D mutation.
The rate of phosphate (Pi) uptake into HEK293 cells was measured using a modification of the method described by Mohrmann et al. (Mohrmann, I., Mohrmann, M., Biber, J., and Murer, H. (1986) Am. J. Phys. 250(3 Pt 1):G323-30.) Transfected HEK293 cells were treated with a pharmacological agent to minimize endogenous PiT-mediated phosphate transport activity, such that the only remaining sodium-dependent phosphate transport activity is that which was bestowed by introduction of the NaP2b genes.
Cells were seeded into 96-well plates at 25,000 cells/well and cultured overnight. Lipofectamine 2000 (Invitrogen) was used to introduce the NaP2b cDNA, and the cells were allowed to approach confluence during a second overnight incubation. […] Cells were then overlayed with either choline uptake buffer or sodium uptake buffer (14 mM Tris, 137 mM sodium chloride, 5.4 mM KCl, 2.8 mM CaCl2, 1.2 mM MgSO4, 100 uM KH2PO4, PiT-silencing agent, 1 mg/mL Bovine Serum Albumin, pH 7.4) containing 6-9 uCi/mL ^33P orthophosphoric acid (Perkin Elmer) and test compound. Each compound was tested at twelve concentrations ranging from 0.1 nM to 30 uM. Assays were run in duplicate.
After incubation for 3-30 minutes at room temperature, assay mixtures were removed, and the cells were washed twice with ice cold stop solution (137 mM sodium chloride, 14 mM Tris, pH 7.4). Cells were lysed by addition of 20 μL 0.1% Tween 80 followed by 100 μL scintillation fluid, and counted using a TopCount (Perkin Elmer).
pIC50 (the negative log of the […]) values of the test compounds were calculated using GraphPad Prism.

[2] = Stability of compounds in simulated gastric fluid (SGF); type: in vitro ADME; conditions: simulated gastric fluid (USP, 3 mg/mL pepsin), 1-20 μM, incubation time 6 hr, relative to t=0
Procedure: (§1) Test compounds were incubated at 1-20 μM in simulated gastric fluid (SGF; standard USP solution with 3 mg/mL pepsin) or simulated intestinal fluid (SIF; standard USP solution with 3 mg/mL pancreatin) for 3 hr or 6 hr. HPLC-UV or HPLC-MS were used to determine test compound levels using peak area %. Results (Table 14) were reported as the percentage of test compound remaining after incubation in a given condition relative to test compound present at t=0 in the same condition.

[3] = Stability of compounds in simulated intestinal fluid (SIF); type: in vitro ADME; conditions: simulated intestinal fluid (USP, 3 mg/mL pancreatin), 1-20 μM, incubation time 6 hr, relative to t=0
Procedure: as §1

IC50 (rat NaP2b (SLC34A2)): 1 to 7.94 µM
IC50 (human NaP2b (SLC34A2)): < 1 µM
% remaining, SGF [2]: >80%
% remaining, SIF [3]: >80%
Compound: CCN(CC)c1ccc(NC(=O)c2cccc(COCCOCCOCCOCCOCCOCCOC(=O)NCCOCCOCCOCCOCCOCCOCCOC)c2)c(-c2cc(C(=O)NCc3cccc(C(F)(F)F)c3)ccn2)c1 [Example 174, 1-(3-(4-(diethylamino)-2-(4-(3-(trifluoromethyl)benzylcarbamoyl)pyridin-2-yl)phenylcarbamoyl)phenyl)-2,5,8,11,14,17-hexaoxanonadecan-19-yl 2,5,8,11,14,17,20-heptaoxadocosan-22-ylcarbamate]

IC50 (rat NaP2b (SLC34A2)): < 1 µM
IC50 (human NaP2b (SLC34A2)): < 1 µM
Compound: CCN(CC)c1ccc(NC(=O)c2cccc(Cn3ccc4c(C(=O)NCCOCCOCCOCCC(=O)O)cccc43)c2)c(-c2cc(C(=O)N[C@H]3CCCc4ccccc43)ccn2)c1 [Example 182, (S)-1-(1-(3-(4-(diethylamino)-2-(4-(1,2,3,4-tetrahydronaphthalen-1-ylcarbamoyl)pyridin-2-yl)phenylcarbamoyl)benzyl)-1H-indol-4-yl)-1-oxo-5,8,11-trioxa-2-azatetradecan-14-oic acid]

IC50 (rat NaP2b (SLC34A2)): 10 to 31.6 µM
IC50 (human NaP2b (SLC34A2)): 10 to 31.6 µM
Compound: CCN(CC)c1ccc(NC(=O)c2cccc(C(=O)N(C)CCN3CCN(C(=O)N(C)CCOCCOCCOCCC(=O)N(C)C[C@H](O)[C@@H](O)[C@H](O)[C@H](O)CO)CC3)c2)c(-c2cc(C(=O)N[C@H]3CCCc4ccccc43)ccn2)c1 [Example 232, 3-N-[4-(diethylamino)-2-(4-{[(1S)-1,2,3,4-tetrahydronaphthalen-1-yl]carbamoyl}pyridin-2-yl)phenyl]-1-N-methyl-1-N-(2-{4-[methyl(2-{2-[2-(2-{methyl[(2S,3R,4R,5R)-2,3,4,5,6-pentahydroxyhexyl]carbamoyl}ethoxy)ethoxy]ethoxy}ethyl)carbamoyl]piperazin-1-yl}ethyl)benzene-1,3-dicarboxamide]

IC50 (rat NaP2b (SLC34A2)): 1 to 7.94 µM
IC50 (human NaP2b (SLC34A2)): 1 to 7.94 µM
Compound: CCN(CC)c1ccc(NC(=O)c2cccc(CCCOCCOCCOCCOCCC(=O)N3CCN(C(=O)c4cccc(CCCOCCOCCOCCOCCC(=O)O)c4)CC3)c2)c(-c2cc(C(=O)NCc3cccc(C(F)(F)F)c3)ccn2)c1 [Example 293, 16-(3-(4-(16-(3-(4-(diethylamino)-2-(4-(3-(trifluoromethyl)benzylcarbamoyl)pyridin-2-yl)phenylcarbamoyl)phenyl)-4,7,10,13-tetraoxahexadecane)piperazine-1-carbonyl)phenyl)-4,7,10,13-tetraoxahexadecan-1-oic acid]

The next lines start with the compound.

Compound: O=C(O)CCSCc1cccc(C(=O)Nc2ccc(N3CCOCC3)cc2-c2cc(C(=O)NCc3cccc(C(F)(F)F)c3)ccn2)c1 [Example 14, 3-((3-((4-Morpholino-2-(4-((3-(trifluoromethyl)benzyl)carbamoyl)pyridin-2-yl)phenyl)carbamoyl)benzyl)thio)propanoic acid]
IC50 (rat NaP2b (SLC34A2)): 10 to 31.6 µM
% Inhibition of Serum P elevation (Sprague-Dawley rats): 10-20%

Compound: O=C(O)CCSCc1cccc(C(=O)Nc2ccc(Cl)cc2-c2cc(C(=O)NCc3cccc(C(F)(F)F)c3)ccn2)c1 [Example 21, 3-((3-((4-Chloro-2-(4-((3-(trifluoromethyl)benzyl)carbamoyl)pyridin-2-yl)phenyl)carbamoyl)benzyl)thio)propanoic acid]
IC50 (rat NaP2b (SLC34A2)): 1 to 7.94 µM
% Inhibition of Serum P elevation (Sprague-Dawley rats): 10-20%

Compound: CCN(CC)c1ccc(NC(=O)c2cccc(CSCCOCCOCCOCCOCCOCCOCCOCCOCCC(=O)O)c2)c(-c2cc(C(=O)NCc3cccc(C(F)(F)F)c3)ccn2)c1 [Example 166, 1-(3-(4-(diethylamino)-2-(4-(3-(trifluoromethyl)benzylcarbamoyl)pyridin-2-yl)phenylcarbamoyl)phenyl)-5,8,11,14,17,20,23,26-octaoxa-2-thianonacosan-29-oic acid]
Ser CRE ([1]; study 2, 2 weeks): 1.2 mg/dL
Ser P ([1]; study 2, 2 weeks): 11 mg/dL
FGF23 ([1]; study 2, 2 weeks, serum): 100000 pg/mL
Ser CRE, mg/dL ([1]; study 3, 3 weeks): 1.0^§ mg/dL
Ser P, mg/dL ([1]; study 3, 3 weeks): 10^§ mg/dL
Avg % weight gain ([1]; study 3, 4 weeks): 35^§§ %
FGF23, pg/mL ([1]; study 3, 4 weeks, serum): 1.2 × 10^5§§ pg/mL

Compound: CCN(CC)c1ccc(NC(=O)c2cccc(CCCOCCOCCOCCOCCOCCOCCOCCOCCOC)c2)c(-c2cc(C(=O)N[C@H]3CCCc4ccccc43)ccn2)c1 [Example 261, (S)-2-(2-(3-(2,5,8,11,14,17,20,23,26-nonaoxanonacosan-29-yl)benzamido)-5-(diethylamino)phenyl)-N-(1,2,3,4-tetrahydronaphthalen-1-yl)isonicotinamide]
Ser CRE ([1]; study 1, 2 weeks): 1.0 mg/dL
Ser P ([1]; study 1, 2 weeks): 9.7 mg/dL
FGF23, pg/mL ([1]; study 1, 2 weeks, serum): >15,000 pg/mL
